Experimental data reported in patent US20100267561A1, “HERBICIDAL PYRIDAZINONE DERIVATIVES” (priority 2007, published 2010).

Assays:
Test in all cases: Test B pre-/postemergence plant response
Assay type in all cases: in vivo
[1] = test system: Italian ryegrass (Lolium multiflorum); details: for Ryegrass, Italian plant response rating: 8 g ai/ha
Summary of the method: (§1)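 Visual scoring from 0 (no effect) to 100 (complete control) against untreated controls was done 13 to 15 days after greenhouse treatment. Chemicals were formulated in a surfactant-containing non-phytotoxic solvent and applied to soil preemergence or to 1- to 4-leaf (2-18 cm) plants postemergence.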

[2] = test system: Russian thistle (Salsola iberica); details: Preemergence
Summary of the method: as §1

[3] = test system: bermudagrass (Cynodon dactylon); details: for Bermudagrass plant response rating: 8 g ai/ha
Summary of the method: as §1

[4] = test system: corn (Zea mays); details: for Corn plant response rating: 8 g ai/ha
Summary of the method: as §1

[5] = test system: downy bromegrass (Bromus tectorum); details: for Bromegrass, Downy plant response rating: 8 g ai/ha
Summary of the method: as §1

[6] = test system: eastern black (E.B.) nightshade (Solanum ptycanthum); details: Preemergence
Summary of the method: as §1

[7] = test system: green foxtail (Setaria viridis); details: for Foxtail, Green plant response rating: 8 g ai/ha
Summary of the method: as §1

[8] = test system: kochia (Kochia scoparia); details: for Kochia plant response rating: 8 g ai/ha
Summary of the method: as §1

[9] = test system: morningglory (Ipomoea coccinea); details: for Morningglory plant response rating: 8 g ai/ha
Summary of the method: as §1

[10] = test system: pigweed (Amaranthus retroflexus); details: for Pigweed plant response rating: 8 g ai/ha
Summary of the method: as §1

[11] = test system: soybean (Glycine max); details: for Soybean plant response rating: 8 g ai/ha
Summary of the method: as §1

[12] = test system: surinam grass (Brachiaria decumbens); details: for Surinam Grass plant response rating: 8 g ai/ha
Summary of the method: as §1

[13] = test system: velvetleaf (Abutilon theophrasti); details: for Velvetleaf plant response rating: 8 g ai/ha
Summary of the method: as §1

[14] = test system: woolly cupgrass (Eriochloa villosa); details: for Cupgrass, Woolly plant response rating: 8 g ai/ha
Summary of the method: as §1

[15] = Postemergence, 16 g ai/ha, scale 0 to 100
[16] = Postemergence, 31 g ai/ha, scale 0 to 100, 0 no effect, 100 complete control
[17] = Postemergence, 62 g ai/ha, scale 0 to 100, 0 no effect, 100 complete control
[18] = Preemergence, 16 g ai/ha, scale 0 to 100 (0 no effect, 100 complete control)
[19] = Preemergence, 31 g ai/ha, 0 to 100 scale, 0 no effect, 100 complete control
[20] = Preemergence, 62 g ai/ha, scale 0 to 100
[21] = 16 g ai/ha, scale 0 to 100 (0 no effect, 100 complete control)
[22] = 31 g ai/ha, 0 to 100 scale, 0 no effect, 100 complete control

Cc1cc(-c2ccc(Cl)cc2)nn1-c1c(OC(=O)C(C)C)cnn(C)c1=O [Compound 34]
Ryegrass, Italian plant response rating ([1]; postemergence, 0-100 scale): 70 | Plant response rating, Ryegrass, Italian [1, 15]: 85 | Plant response rating, Ryegrass, Italian [1, 16]: 95 | Plant response rating, Ryegrass, Italian [1, 17]: 100 | Plant response rating, Ryegrass, Italian [1, 18]: 100 | Plant response rating, Ryegrass, Italian [1, 19]: 100 | Plant response rating, Ryegrass, Italian [1, 20]: 100 | Ryegrass, Italian plant response rating ([1]; Preemergence, scale 0 to 100): 100 | Plant response rating, Russian Thistle [2, 21]: 0 | Plant response rating, Russian Thistle [2, 22]: 0 | Plant response rating, Russian Thistle ([2]; 62 g ai/ha, scale 0 to 100): 0 | Russian Thistle plant response rating ([2]; 8 g ai/ha, scale 0 to 100): 0 | Bermudagrass plant response rating ([3]; postemergence, 0-100 scale): 65 | Plant response rating, Bermudagrass [3, 15]: 100 | Plant response rating, Bermudagrass [3, 16]: 100 | Plant response rating, Bermudagrass [3, 17]: 100 | Bermudagrass plant response rating ([3]; Preemergence, scale 0 to 100 (0 no effect, 100 complete control)): 50 | Plant response rating, Bermudagrass [3, 18]: 98 | Plant response rating, Bermudagrass [3, 19]: 98 | Plant response rating, Bermudagrass [3, 20]: 100 | Corn plant response rating ([4]; postemergence, 0-100 scale): 0 | Plant response rating, Corn [4, 15]: 98 | Plant response rating, Corn [4, 16]: 98 | Plant response rating, Corn [4, 17]: 98 | Plant response rating, Corn [4, 18]: 65 | Plant response rating, Corn [4, 19]: 85 | Plant response rating, Corn [4, 20]: 95 | Corn plant response rating ([4]; Preemergence, scale 0 to 100): 0 | Bromegrass, Downy plant response rating ([5]; postemergence, 0-100 scale): 20 | Plant response rating, Bromegrass, Downy [5, 15]: 50 | Plant response rating, Bromegrass, Downy [5, 16]: 50 | Plant response rating, Bromegrass, Downy [5, 17]: 80 | Plant response rating, Bromegrass, Downy [5, 18]: 55 | Plant response rating, Bromegrass, Downy [5, 19]: 55 | Plant response rating, Bromegrass, Downy [5, 20]: 80 | Bromegrass, Downy plant response rating ([5]; Preemergence, scale 0 to 100): 0 | Plant response rating, Nightshade, E. B. [6, 21]: 0 | Plant response rating, Nightshade, E. B. [6, 22]: 0 | Plant response rating, Nightshade, E. B. ([6]; 62 g ai/ha, scale 0 to 100): 0 | Nightshade, E. B. plant response rating ([6]; 8 g ai/ha, scale 0 to 100): 0 | Foxtail, Green plant response rating ([7]; postemergence, 0-100 scale): 60 | Plant response rating, Foxtail, Green [7, 15]: 90 | Plant response rating, Foxtail, Green [7, 16]: 100 | Plant response rating, Foxtail, Green [7, 17]: 100 | Plant response rating, Foxtail, Green [7, 18]: 100 | Plant response rating, Foxtail, Green [7, 19]: 100 | Plant response rating, Foxtail, Green [7, 20]: 100 | Foxtail, Green plant response rating ([7]; Preemergence, scale 0 to 100): 100 | Kochia plant response rating ([8]; postemergence, 0-100 scale): 0 | Plant response rating, Kochia [8, 15]: 0 | Plant response rating, Kochia [8, 16]: 0 | Plant response rating, Kochia [8, 17]: 0 | Plant response rating, Kochia [8, 18]: 0 | Plant response rating, Kochia [8, 19]: 0 | Plant response rating, Kochia [8, 20]: 0 | Kochia plant response rating ([8]; Preemergence, scale 0 to 100): 0 | Morningglory plant response rating ([9]; postemergence, 0-100 scale): 0 | Plant response rating, Morningglory [9, 15]: 0 | Plant response rating, Morningglory [9, 16]: 0 | Plant response rating, Morningglory [9, 17]: 0 | Plant response rating, Morningglory [9, 18]: 0 | Plant response rating, Morningglory [9, 19]: 0 | Plant response rating, Morningglory [9, 20]: 0 | Morningglory plant response rating ([9]; Preemergence, scale 0 to 100): 0 | Pigweed plant response rating ([10]; postemergence, 0-100 scale): 0 | Plant response rating, Pigweed [10, 15]: 0 | Plant response rating, Pigweed [10, 16]: 0 | Plant response rating, Pigweed [10, 17]: 0 | Plant response rating, Pigweed [10, 18]: 0 | Plant response rating, Pigweed [10, 19]: 0 | Plant response rating, Pigweed [10, 20]: 0 | Pigweed plant response rating ([10]; Preemergence, scale 0 to 100): 0 | Soybean plant response rating ([11]; postemergence, 0-100 scale): 0 | Plant response rating, Soybean [11, 15]: 0 | Plant response rating, Soybean [11, 17]: 0 | Plant response rating, Soybean [11, 18]: 0 | Plant response rating, Soybean [11, 19]: 0 | Plant response rating, Soybean [11, 20]: 0 | Soybean plant response rating ([11]; Preemergence, scale 0 to 100): 0 | Surinam Grass plant response rating ([12]; postemergence, 0-100 scale): 70 | Plant response rating, Surinam Grass [12, 15]: 80 | Plant response rating, Surinam Grass [12, 17]: 100 | Plant response rating, Surinam Grass [12, 18]: 100 | Plant response rating, Surinam Grass [12, 19]: 100 | Plant response rating, Surinam Grass [12, 20]: 100 | Surinam Grass plant response rating ([12]; Preemergence, scale 0 to 100): 95 | Velvetleaf plant response rating ([13]; postemergence, 0-100 scale): 0 | Plant response rating, Velvetleaf [13, 15]: 0 | Plant response rating, Velvetleaf [13, 17]: 0 | Plant response rating, Velvetleaf [13, 18]: 0 | Plant response rating, Velvetleaf [13, 19]: 0 | Plant response rating, Velvetleaf [13, 20]: 0 | Velvetleaf plant response rating ([13]; Preemergence, scale 0 to 100): 0 | Cupgrass, Woolly plant response rating ([14]; postemergence, 0-100 scale): 75 | Plant response rating, Cupgrass, Woolly [14, 15]: 90 | Plant response rating, Cupgrass, Woolly [14, 16]: 100 | Plant response rating, Cupgrass, Woolly [14, 17]: 100 | Plant response rating, Cupgrass, Woolly [14, 18]: 90 | Plant response rating, Cupgrass, Woolly [14, 19]: 95 | Plant response rating, Cupgrass, Woolly [14, 20]: 95 | Cupgrass, Woolly plant response rating ([14]; Preemergence, scale 0 to 100): 55
